Earlier results on one compound are cited in patent US20040259899A1, “Combination therapy for constipation” (priority 2003, published 2004).

For this data set the following is noted: white crystalline powder as provided (Mallinckrodt Pharmaceuticals).

On to `C[N@+]1(CC2CC2)CC[C@]23c4c5ccc(O)c4O[C@H]2C(=O)CC[C@@]3(O)[C@H]1C5` [Methylnaltrexone, N-cyclopropylmethylnoroxy-morphine-methobromide], for which the solubility in water entry is “freely soluble”.
